Laboratory results: ChEMBL document CHEMBL5291721, “A preclinical secondary pharmacology resource illuminates target-adverse drug reaction associations of marketed drugs” (Nat Commun, 2023)

Tests used:
Adenosine receptor A2a = Adenosine receptor A2a (Homo sapiens, UniProt P29274)
[1] = biological target: 3',5'-cyclic-AMP phosphodiesterase 4D (Homo sapiens, UniProt Q08499); assay type: functional
[2] = biological target: Neuronal acetylcholine receptor subunit alpha-4 (Homo sapiens, UniProt P43681)
Endothelin-1 receptor = biological target: T1, Endothelin-1 receptor (Homo sapiens, UniProt P25101)
T1 sequence (P25101 whole entry): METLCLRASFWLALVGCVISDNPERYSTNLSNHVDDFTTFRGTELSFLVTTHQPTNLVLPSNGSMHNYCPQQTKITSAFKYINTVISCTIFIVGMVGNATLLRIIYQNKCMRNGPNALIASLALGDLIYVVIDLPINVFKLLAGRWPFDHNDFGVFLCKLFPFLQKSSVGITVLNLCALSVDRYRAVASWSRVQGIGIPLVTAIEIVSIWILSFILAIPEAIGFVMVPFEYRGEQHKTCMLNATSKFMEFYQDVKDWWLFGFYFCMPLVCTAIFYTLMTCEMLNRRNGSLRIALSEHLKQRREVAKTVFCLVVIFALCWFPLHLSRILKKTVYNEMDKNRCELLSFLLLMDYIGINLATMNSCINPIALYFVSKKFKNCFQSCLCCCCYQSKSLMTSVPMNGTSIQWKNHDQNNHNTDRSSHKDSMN

[3] = biological target: T2, Gastrin/cholecystokinin type B receptor (Homo sapiens, UniProt P32239)
T2 sequence (P32239 whole entry): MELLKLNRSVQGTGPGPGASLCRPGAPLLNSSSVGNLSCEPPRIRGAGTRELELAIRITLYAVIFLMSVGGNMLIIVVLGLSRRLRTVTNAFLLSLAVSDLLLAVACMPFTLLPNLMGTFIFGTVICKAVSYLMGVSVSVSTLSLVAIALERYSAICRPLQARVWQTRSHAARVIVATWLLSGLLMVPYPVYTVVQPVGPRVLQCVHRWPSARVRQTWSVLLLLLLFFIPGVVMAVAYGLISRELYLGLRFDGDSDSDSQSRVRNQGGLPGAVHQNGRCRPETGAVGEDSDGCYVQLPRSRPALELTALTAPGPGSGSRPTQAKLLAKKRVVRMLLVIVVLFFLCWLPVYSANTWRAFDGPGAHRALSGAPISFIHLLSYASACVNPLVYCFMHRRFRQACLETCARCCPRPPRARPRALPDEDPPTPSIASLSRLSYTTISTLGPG

Thromboxane A2 receptor = biological target: T3, Thromboxane A2 receptor (Homo sapiens, UniProt P21731)
T3 sequence (P21731 whole entry): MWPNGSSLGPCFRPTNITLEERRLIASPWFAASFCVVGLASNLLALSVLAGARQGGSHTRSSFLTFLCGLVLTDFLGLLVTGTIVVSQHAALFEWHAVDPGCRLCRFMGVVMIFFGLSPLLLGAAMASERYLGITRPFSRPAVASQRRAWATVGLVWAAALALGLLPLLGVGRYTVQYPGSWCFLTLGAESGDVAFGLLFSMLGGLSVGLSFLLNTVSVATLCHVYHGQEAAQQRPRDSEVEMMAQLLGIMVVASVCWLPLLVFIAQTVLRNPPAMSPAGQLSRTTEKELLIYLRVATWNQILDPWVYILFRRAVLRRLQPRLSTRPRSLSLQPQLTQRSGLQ

[4] = biological target: Sodium-dependent dopamine transporter (Homo sapiens, UniProt Q01959)
[5] = biological target: 5-hydroxytryptamine receptor 2B (Homo sapiens, UniProt P41595); assay type: functional, cell-based
Glucocorticoid receptor = biological target: T4, Glucocorticoid receptor (Homo sapiens, UniProt P04150)
T4 sequence (P04150 whole entry): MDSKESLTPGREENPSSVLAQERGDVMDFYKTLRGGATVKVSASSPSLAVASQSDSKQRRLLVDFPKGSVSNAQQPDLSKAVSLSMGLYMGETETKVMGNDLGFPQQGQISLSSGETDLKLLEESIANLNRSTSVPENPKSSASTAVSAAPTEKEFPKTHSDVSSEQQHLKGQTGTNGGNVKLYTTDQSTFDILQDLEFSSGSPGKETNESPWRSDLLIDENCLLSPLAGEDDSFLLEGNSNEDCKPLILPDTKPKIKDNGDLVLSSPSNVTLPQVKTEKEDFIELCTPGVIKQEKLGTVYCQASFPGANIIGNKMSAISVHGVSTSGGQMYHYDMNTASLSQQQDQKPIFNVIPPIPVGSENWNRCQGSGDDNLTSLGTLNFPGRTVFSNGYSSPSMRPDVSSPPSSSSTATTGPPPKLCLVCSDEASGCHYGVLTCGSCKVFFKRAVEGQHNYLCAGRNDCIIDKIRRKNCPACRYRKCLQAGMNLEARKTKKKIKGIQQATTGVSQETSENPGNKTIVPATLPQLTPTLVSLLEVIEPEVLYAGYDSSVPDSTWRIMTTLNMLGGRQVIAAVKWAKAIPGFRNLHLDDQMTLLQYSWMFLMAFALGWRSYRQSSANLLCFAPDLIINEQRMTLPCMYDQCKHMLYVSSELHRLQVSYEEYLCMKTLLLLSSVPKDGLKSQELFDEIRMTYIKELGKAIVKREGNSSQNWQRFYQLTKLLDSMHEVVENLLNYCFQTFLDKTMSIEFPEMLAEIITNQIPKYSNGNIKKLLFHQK
Note: assay procedure not described here.

Chain of Adenosine receptor A2a (P29274 whole entry): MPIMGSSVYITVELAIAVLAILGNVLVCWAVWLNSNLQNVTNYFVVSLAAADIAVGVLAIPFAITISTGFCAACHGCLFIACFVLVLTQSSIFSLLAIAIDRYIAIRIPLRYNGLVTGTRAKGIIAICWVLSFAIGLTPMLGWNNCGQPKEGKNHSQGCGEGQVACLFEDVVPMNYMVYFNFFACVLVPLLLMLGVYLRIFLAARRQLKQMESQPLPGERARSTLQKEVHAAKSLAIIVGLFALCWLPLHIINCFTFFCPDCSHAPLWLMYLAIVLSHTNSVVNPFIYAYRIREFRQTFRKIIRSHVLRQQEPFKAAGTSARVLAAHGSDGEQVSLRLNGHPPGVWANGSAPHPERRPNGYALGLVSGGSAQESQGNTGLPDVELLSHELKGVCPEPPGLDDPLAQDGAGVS
Chain of 3',5'-cyclic-AMP phosphodiesterase 4D (Q08499 whole entry): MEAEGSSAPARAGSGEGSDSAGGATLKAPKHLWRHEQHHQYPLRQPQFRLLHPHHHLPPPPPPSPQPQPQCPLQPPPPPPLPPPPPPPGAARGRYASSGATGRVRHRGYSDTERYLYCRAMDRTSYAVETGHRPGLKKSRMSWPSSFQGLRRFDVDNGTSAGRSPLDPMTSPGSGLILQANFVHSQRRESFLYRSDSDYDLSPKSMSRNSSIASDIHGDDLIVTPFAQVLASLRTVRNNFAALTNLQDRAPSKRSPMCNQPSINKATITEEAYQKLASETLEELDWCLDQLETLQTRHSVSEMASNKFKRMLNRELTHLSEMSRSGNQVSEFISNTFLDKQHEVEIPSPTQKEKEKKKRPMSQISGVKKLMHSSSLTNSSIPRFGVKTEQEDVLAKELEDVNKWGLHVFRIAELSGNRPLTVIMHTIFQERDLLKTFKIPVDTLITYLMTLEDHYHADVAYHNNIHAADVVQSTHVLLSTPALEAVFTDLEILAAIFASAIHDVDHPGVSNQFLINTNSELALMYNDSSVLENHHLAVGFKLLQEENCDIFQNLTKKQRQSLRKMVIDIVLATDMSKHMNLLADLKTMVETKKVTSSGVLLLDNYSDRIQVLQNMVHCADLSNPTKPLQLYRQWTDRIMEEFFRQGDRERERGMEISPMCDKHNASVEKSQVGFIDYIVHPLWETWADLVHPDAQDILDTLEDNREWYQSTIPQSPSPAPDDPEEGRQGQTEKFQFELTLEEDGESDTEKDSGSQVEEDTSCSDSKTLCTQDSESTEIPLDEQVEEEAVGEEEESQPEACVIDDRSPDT
Chain of Neuronal acetylcholine receptor subunit alpha-4 (P43681 whole entry): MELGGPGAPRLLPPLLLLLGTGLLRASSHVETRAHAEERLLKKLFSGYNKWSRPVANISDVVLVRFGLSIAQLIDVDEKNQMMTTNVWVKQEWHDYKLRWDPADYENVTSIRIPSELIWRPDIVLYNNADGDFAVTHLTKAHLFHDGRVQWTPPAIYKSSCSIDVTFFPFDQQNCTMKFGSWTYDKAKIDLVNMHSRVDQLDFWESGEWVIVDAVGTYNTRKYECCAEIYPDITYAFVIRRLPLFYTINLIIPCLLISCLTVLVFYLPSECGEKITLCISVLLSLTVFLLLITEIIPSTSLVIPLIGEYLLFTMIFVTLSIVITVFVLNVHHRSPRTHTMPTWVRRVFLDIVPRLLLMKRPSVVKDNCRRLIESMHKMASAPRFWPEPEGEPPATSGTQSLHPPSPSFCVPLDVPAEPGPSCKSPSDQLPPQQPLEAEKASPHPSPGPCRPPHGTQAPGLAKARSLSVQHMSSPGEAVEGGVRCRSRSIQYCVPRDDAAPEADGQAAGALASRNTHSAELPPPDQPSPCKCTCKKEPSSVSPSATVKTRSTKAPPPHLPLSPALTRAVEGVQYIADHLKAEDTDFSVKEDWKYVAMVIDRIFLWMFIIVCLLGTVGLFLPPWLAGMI
Chain of 5-hydroxytryptamine receptor 2B (P41595 whole entry): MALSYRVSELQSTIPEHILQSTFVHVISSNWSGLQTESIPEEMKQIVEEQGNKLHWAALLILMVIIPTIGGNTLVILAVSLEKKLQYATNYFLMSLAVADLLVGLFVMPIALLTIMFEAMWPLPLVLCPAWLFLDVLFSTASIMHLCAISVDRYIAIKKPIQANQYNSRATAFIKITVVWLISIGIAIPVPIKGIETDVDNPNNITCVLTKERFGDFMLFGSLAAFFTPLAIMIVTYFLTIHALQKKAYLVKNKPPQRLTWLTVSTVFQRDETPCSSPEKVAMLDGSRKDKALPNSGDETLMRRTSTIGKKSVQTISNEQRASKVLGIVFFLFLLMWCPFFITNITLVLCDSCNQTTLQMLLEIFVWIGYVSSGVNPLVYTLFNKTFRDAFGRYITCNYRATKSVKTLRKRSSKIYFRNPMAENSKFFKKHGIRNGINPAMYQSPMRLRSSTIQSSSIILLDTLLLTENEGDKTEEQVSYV
Chain of Sodium-dependent dopamine transporter (Q01959 whole entry): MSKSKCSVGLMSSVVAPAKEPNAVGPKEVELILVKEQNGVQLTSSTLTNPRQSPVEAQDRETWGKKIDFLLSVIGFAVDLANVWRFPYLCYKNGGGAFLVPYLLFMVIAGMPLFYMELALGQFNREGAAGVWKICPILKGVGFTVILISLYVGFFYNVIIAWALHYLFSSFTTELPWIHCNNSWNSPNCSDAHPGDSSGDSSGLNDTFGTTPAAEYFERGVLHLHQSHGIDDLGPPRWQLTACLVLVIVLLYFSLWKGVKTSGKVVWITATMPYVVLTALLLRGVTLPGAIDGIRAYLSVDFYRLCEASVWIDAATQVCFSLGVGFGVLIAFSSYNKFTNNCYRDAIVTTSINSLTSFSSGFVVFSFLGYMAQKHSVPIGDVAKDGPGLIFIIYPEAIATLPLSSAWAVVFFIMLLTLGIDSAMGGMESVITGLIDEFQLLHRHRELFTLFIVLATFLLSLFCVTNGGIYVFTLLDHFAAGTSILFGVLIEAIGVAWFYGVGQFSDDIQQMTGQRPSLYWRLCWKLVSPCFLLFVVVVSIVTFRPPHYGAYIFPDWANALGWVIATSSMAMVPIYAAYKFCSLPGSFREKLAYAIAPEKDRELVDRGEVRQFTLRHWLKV

`CC(C)c1c(C(=O)Nc2ccccc2)c(-c2ccccc2)c(-c2ccc(F)cc2)n1CC[C@@H](O)C[C@@H](O)CC(=O)O` [ATORVASTATIN] was tested, and the AC50 (Adenosine receptor A2a) was greater than 30 µM, the AC50 [1] was greater than 30 µM and the AC50 [2] was greater than 10 µM. For the same compound, the AC50 (Endothelin-1 receptor) was greater than 30 µM, the AC50 [3] was greater than 30 µM and the AC50 (Thromboxane A2 receptor) was greater than 30 µM.
`CN1C(=O)COc2c(C(=O)NC3CN4CCC3CC4)cc(Cl)cc21` (centres undefined) [AZASETRON] was tested, and the AC50 (Adenosine receptor A2a) was greater than 30 µM, the AC50 [4] was greater than 30 µM and the AC50 [1] was 4.1 µM. The AC50 [2] was greater than 30 µM, the AC50 [5] was greater than 30 µM and the AC50 (Endothelin-1 receptor) was greater than 30 µM. It also gave an AC50 [3] greater than 30 µM and an AC50 (Thromboxane A2 receptor) greater than 30 µM.
With `CCCCN1CCCCC1C(=O)Nc1c(C)cccc1C` (centres undefined) [BUPIVACAINE] the AC50 (Adenosine receptor A2a) was greater than 30 µM, the AC50 [4] was greater than 30 µM and the AC50 [1] was greater than 30 µM. It also gave an AC50 [2] greater than 30 µM, an AC50 [5] greater than 30 µM and an AC50 (Endothelin-1 receptor) greater than 30 µM. The AC50 [3] was greater than 30 µM and the AC50 (Thromboxane A2 receptor) was greater than 30 µM.
`CC(=O)O[C@@]12CO[C@@H]1C[C@H](O)[C@@]1(C)C(=O)[C@H](O)C3=C(C)[C@@H](OC(=O)[C@H](O)[C@@H](NC(=O)OC(C)(C)C)c4ccccc4)C[C@@](O)([C@@H](OC(=O)c4ccccc4)[C@H]21)C3(C)C` [DOCETAXEL ANHYDROUS] was tested, and the AC50 (Glucocorticoid receptor) was greater than 30 µM, the AC50 (Adenosine receptor A2a) was greater than 30 µM and the AC50 [4] was greater than 30 µM. It also gave an AC50 [1] greater than 30 µM, an AC50 [2] greater than 30 µM and an AC50 [5] greater than 30 µM. It also gave an AC50 [3] of 19.2 µM and an AC50 (Thromboxane A2 receptor) greater than 30 µM.
In the case of `COc1c(N2CCNC(C)C2)c(F)cc2c(=O)c(C(=O)O)cn(C3CC3)c12` (centres undefined) [GATIFLOXACIN], the AC50 (Glucocorticoid receptor) is reported as greater than 10 µM, the AC50 (Adenosine receptor A2a) is reported as greater than 10 µM and the AC50 [4] is reported as greater than 10 µM. It also gave an AC50 [1] greater than 30 µM, an AC50 [2] greater than 10 µM and an AC50 [5] greater than 10 µM. It also gave an AC50 (Thromboxane A2 receptor) greater than 10 µM.
With `CCN1CCC[C@H]1CNC(=O)c1cc(S(N)(=O)=O)ccc1OC` [LEVOSULPIRIDE] the AC50 (Glucocorticoid receptor) was greater than 30 µM, the AC50 (Adenosine receptor A2a) was greater than 30 µM and the AC50 [4] was greater than 30 µM. For the same compound, the AC50 [1] was greater than 30 µM, the AC50 [2] was greater than 10 µM and the AC50 [5] was greater than 10 µM. For the same compound, the AC50 [3] was greater than 30 µM and the AC50 (Thromboxane A2 receptor) was greater than 30 µM.
`Cc1cccc(C)c1NC(=O)C1CCCCN1C` (centres undefined) [MEPIVACAINE] was tested, and the AC50 (Glucocorticoid receptor) was greater than 30 µM, the AC50 (Adenosine receptor A2a) was greater than 30 µM and the AC50 [4] was greater than 30 µM. For the same compound, the AC50 [1] was greater than 30 µM, the AC50 [2] was greater than 30 µM and the AC50 [5] was greater than 30 µM. It also gave an AC50 (Endothelin-1 receptor) greater than 30 µM and an AC50 [3] greater than 30 µM.
With `COc1ccccc1OCC(O)COC(N)=O` (centres undefined) [METHOCARBAMOL] the AC50 (Glucocorticoid receptor) was greater than 30 µM, the AC50 (Adenosine receptor A2a) was greater than 10 µM and the AC50 [4] was greater than 10 µM. For the same compound, the AC50 [1] was greater than 30 µM, the AC50 [2] was greater than 10 µM and the AC50 [5] was greater than 10 µM. It also gave an AC50 (Thromboxane A2 receptor) greater than 10 µM.
`CCN(CC)CCOC(=O)c1ccc(N)cc1` [PROCAINE] showed an AC50 (Adenosine receptor A2a) greater than 30 µM, an AC50 [4] greater than 30 µM and an AC50 [1] greater than 10 µM. The AC50 [2] was greater than 10 µM, the AC50 [5] was greater than 10 µM and the AC50 [3] was greater than 30 µM.
`CCCOc1ccc(C(=O)OCCN(CC)CC)cc1N` [PROPARACAINE] showed an AC50 (Glucocorticoid receptor) greater than 30 µM, an AC50 (Adenosine receptor A2a) greater than 30 µM and an AC50 [4] greater than 30 µM. For the same compound, the AC50 [1] was greater than 30 µM, the AC50 [2] was greater than 30 µM and the AC50 [5] was greater than 30 µM. For the same compound, the AC50 (Endothelin-1 receptor) was greater than 30 µM and the AC50 [3] was greater than 30 µM.
With `Nc1nc2ccc(OC(F)(F)F)cc2s1` [RILUZOLE] the AC50 (Glucocorticoid receptor) was greater than 30 µM, the AC50 (Adenosine receptor A2a) was greater than 30 µM and the AC50 [4] was greater than 30 µM. It also gave an AC50 [1] of 14 µM, an AC50 [2] greater than 30 µM and an AC50 [5] greater than 30 µM. The AC50 (Endothelin-1 receptor) was greater than 30 µM and the AC50 [3] was greater than 30 µM.
`C#CCN(C)[C@H](C)Cc1ccccc1` [SELEGILINE] showed an AC50 (Glucocorticoid receptor) greater than 10 µM, an AC50 (Adenosine receptor A2a) greater than 10 µM and an AC50 [4] greater than 10 µM. For the same compound, the AC50 [1] was greater than 30 µM, the AC50 [2] was greater than 10 µM and the AC50 [5] was greater than 10 µM. It also gave an AC50 (Thromboxane A2 receptor) greater than 10 µM.
Work on `O=C1NCCN1CCN1CCC(c2cn(-c3ccc(F)cc3)c3ccc(Cl)cc23)CC1` [SERTINDOLE] yielded an AC50 (Adenosine receptor A2a) greater than 30 µM, an AC50 [4] of 1.7 µM and an AC50 [1] of 20 µM. For the same compound, the AC50 [2] was 17 µM, the AC50 [5] was 0.6 µM and the AC50 (Endothelin-1 receptor) was greater than 30 µM. It also gave an AC50 [3] greater than 30 µM and an AC50 (Thromboxane A2 receptor) greater than 30 µM.
`CN[C@@H]1[C@H](O)[C@H](NC)[C@H]2O[C@@]3(O)C(=O)C[C@@H](C)O[C@H]3O[C@@H]2[C@H]1O` [SPECTINOMYCIN] was tested, and the AC50 (Glucocorticoid receptor) was greater than 10 µM, the AC50 (Adenosine receptor A2a) was greater than 10 µM and the AC50 [4] was greater than 10 µM. For the same compound, the AC50 [1] was greater than 30 µM, the AC50 [2] was greater than 10 µM and the AC50 [5] was greater than 30 µM. The AC50 (Thromboxane A2 receptor) was greater than 10 µM.
